Reference: PMC4431183 (2015)

Key:
[1] = tested on: dsDNA (DNA, duplex) AGAAGAGAAAGA/TCTTTCTCTTCT; assay: visible absorbance titration at 405 nm; details: 100 mM K+, 10 mM Mg2+, 2 mM Na+; 50 mM MES-LiOH pH 7.0, 2 mM NaOH, 25 °C; 12.5 µM hemin; 0–250 µM dsDNA, change too small for Ka
[2] = tested on: HteloDNA (DNA, G4) GGGTTAGGGTTAGGGTTAGGG; assay: visible absorbance titration at 405 nm; details: 100 mM K+, 10 mM Mg2+, 2 mM Na+; 50 mM MES-LiOH pH 7.0, 2 mM NaOH, 25 °C; 12.5 µM hemin
[3] = tested on: HteloDNA (DNA, G4) GGGTTAGGGTTAGGGTTAGGG; assay: visible absorbance titration at 424 nm; details: 100 mM K+, 10 mM Mg2+; 50 mM MES-LiOH pH 7.0, 25 °C; 1.0 µM TMPyP4
[4] = tested on: dsDNA (DNA, duplex) AGAAGAGAAAGA/TCTTTCTCTTCT; assay: visible absorbance titration at 424 nm; details: 100 mM K+, 10 mM Mg2+; 50 mM MES-LiOH pH 7.0, 25 °C; 1.0 µM TMPyP4

SMILES | binding [1] | Ka [2] | Ka [3] | Ka [4]
C=CC1=C(C)C2=Cc3c(C=C)c(C)c4[n]3[Fe]([Cl])[n]3c(c(C)c(CCC(=O)O)c3=CC3=NC(=C4)C(C)=C3CCC(=O)O)=CC1=N2 | weak | (5.5 ± 3.1) × 10^4 M^−1 |  | 
C[n+]1ccc(-c2c3nc(c(-c4cc[n+](C)cc4)c4ccc([nH]4)c(-c4cc[n+](C)cc4)c4nc(c(-c5cc[n+](C)cc5)c5ccc2[nH]5)C=C4)C=C3)cc1 |  |  | (1.2 ± 0.1) × 10^6 M^−1 | (1.8 ± 0.6) × 10^5 M^−1
